Measured values taken from patent US8053441B2, “Pyrazolylquinazolinones as potassium channel openers” (Janssen Pharmaceutica N.V., priority 2006, dated 2011).

target: T1, KATP channels (Homo sapiens, UniProt O60706+Q14654); assay: Potassium Channel Assay (FLIPR membrane potential); format: cell-based; set-up: key: A compound was designated as active if it produced greater than or equal to 10% response at 30 μM; A compound was designated as inactive if it produced less than 10% response at 30 μM; details: TE671 human medulloblastoma cells, 30 μM, Membrane Potential Assay Dye
T1 construct: TE671 human medulloblastoma cells were obtained from ATCC; host or cells: TE671 human medulloblastoma cells
T1 sequence (O60706 1-1549 isoform O60706-2): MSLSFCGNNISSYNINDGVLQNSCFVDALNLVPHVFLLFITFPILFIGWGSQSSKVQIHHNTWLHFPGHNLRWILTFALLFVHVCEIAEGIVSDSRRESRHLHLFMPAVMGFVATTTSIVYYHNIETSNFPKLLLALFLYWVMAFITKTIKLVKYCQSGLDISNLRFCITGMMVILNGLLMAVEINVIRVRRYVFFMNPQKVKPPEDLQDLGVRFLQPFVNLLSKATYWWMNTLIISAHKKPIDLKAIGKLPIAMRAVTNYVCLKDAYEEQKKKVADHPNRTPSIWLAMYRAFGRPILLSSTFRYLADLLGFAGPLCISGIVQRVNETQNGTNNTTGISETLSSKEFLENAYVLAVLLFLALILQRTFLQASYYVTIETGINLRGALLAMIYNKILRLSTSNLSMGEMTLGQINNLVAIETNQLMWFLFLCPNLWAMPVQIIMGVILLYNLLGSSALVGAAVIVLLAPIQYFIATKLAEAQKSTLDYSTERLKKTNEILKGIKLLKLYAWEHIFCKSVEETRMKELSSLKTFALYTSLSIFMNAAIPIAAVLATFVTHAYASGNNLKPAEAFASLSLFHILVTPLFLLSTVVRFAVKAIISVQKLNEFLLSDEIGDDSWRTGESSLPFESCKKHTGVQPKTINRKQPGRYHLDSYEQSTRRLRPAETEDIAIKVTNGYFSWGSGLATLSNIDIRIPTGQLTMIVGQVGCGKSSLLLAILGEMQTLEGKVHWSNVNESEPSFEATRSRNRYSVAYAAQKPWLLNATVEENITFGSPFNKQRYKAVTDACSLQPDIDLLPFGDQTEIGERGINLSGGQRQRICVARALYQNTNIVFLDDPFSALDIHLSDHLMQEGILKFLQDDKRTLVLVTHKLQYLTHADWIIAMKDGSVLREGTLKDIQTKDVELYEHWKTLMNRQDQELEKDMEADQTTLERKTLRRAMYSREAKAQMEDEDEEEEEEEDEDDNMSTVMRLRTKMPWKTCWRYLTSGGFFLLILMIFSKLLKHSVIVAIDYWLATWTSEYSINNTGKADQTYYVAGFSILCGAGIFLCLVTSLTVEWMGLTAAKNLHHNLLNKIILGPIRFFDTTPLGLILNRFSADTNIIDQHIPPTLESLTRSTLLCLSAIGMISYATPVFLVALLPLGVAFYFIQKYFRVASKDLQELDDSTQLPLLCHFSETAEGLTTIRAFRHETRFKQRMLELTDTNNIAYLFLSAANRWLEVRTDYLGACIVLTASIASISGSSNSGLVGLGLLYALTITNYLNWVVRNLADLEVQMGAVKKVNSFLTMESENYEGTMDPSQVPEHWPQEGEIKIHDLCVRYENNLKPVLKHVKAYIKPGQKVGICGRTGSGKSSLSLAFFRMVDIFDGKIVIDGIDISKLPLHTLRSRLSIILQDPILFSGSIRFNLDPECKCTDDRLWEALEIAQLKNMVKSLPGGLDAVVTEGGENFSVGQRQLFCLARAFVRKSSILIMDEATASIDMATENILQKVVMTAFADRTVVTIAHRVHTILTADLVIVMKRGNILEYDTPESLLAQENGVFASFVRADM
T1 sequence (Q14654 whole entry): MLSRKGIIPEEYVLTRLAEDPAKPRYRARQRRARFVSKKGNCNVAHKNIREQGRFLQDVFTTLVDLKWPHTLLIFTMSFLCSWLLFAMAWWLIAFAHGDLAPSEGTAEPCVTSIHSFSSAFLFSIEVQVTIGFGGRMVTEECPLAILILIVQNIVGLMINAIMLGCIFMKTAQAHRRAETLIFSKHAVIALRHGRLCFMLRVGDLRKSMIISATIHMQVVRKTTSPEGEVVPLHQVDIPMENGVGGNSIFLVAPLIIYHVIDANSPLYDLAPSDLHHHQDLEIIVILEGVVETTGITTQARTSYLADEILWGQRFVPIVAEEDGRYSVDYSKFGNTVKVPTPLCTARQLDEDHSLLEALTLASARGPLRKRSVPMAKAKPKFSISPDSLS
Description: TE671 human medulloblastoma cells were obtained from ATCC and grown in Dulbecco's modified Eagle's medium (DMEM) supplemented with 10% fetal bovine serum, 100 U/ml penicillin and 100 U/ml streptomycine.
The day before testing, the cells were plated in black 96-well plates at 50K/well. On the day of testing, the growth media was removed, then 100 μl of FLIPR buffer (20 mM HEPES, 120 mM NaCl, 2 mM KCl, 2 mM CaCl2, 1 mM MgCl2, 5 mM Glucose) and 100 μl of Membrane Potential Assay Dye (Molecular Devices) dissolved in FLIPR buffer were added to each well. The cells were incubated at room temperature for 15 to 30 min.
The effect of test compounds on KATP channels were evaluated on a fluorometric imaging plate reader (FLIPR, Molecular Devices) at room temperature. After a baseline period, 50 μl of 5× stock solution of test compound prepared in FLIPR buffer was added and fluorescent change was monitored for 3 minutes. After this reading, glyburide, a KATP channel blocker, was added to a final concentration of 5 μM to check the specificity of the test compound as a KATP channel openers. Hyperpolarization resulting from KATP channel opening was observed as a decrease in fluorescent intensity.
Representative compounds of the present invention were tested according to the procedure described above, with results as listed in Table 2 below. Test compound activity was determined as the percent. A compound was designated as active if it produced greater than or equal to 10% response at 30 μM.

Row | SMILES | response
1 | CC1(c2nc3ccc(Cl)cc3c(=O)[nH]2)CC=NN1 (stereo not shown) [compound 1, 6-Chloro-2-(3-methyl-3,4-dihydro-2H-pyrazol-3-vi)-3H-quinazolin-4-one] | active
2 | CC1(c2nc3ccc(Br)cc3c(=O)[nH]2)CC=NN1 (stereo not shown) [compound 2, 6-Bromo-2-(3-methyl-3,4-dihydro-2H-pyrazol-3-vi)-3H-quinazolin-4-one] | active
3 | CC1(c2nc3cc(C(F)(F)F)ccc3c(=O)[nH]2)CC=NN1 (stereo not shown) [compound 3, 2-(3-Methyl-3,4-dihydro-2H-pyrazol-3-yl)-7-trifluoromethyl-3H-quinazolin-4-one] | active
4 | CCOC(=O)C1=NNC(C)(c2nc3ccc(Cl)cc3c(=O)[nH]2)C1 (stereo not shown) [compound 4, 5-(6-Chloro-4-oxo-3,4-dihydro-quinazolin-2-yl)-5-methyl-4,5-dihydro-1H-pyrazole-3-carboxylic acid ethyl ester] | active
